Source: PubChem BioAssay AID1918943 (Molecular Pharmacology Branch, DTP, NCI, 2023)
Where “and” joins values, the source holds several entries; their conditions need not be identical. Identical values can stand only once. Blank lines part the entries; values can stand above or below the compound they belong to.

Tested on: 855422-203-R-J1-PDC complex spheroid viability
Assay: Anticancer human tumor 855422-203-R-J1-PDC patient-derived bladder carcinoma cell line growth inhibition
Conditions: for viability, T/C: stronger effect = lower value
Source text: Multicellular complex tumor spheroid response to LSD1 Inhibitor Iadademstat in combination with a variety of drugs and investigational agents in selected tumor cell lines
The current study was undertaken to assess response to LSD1 inhibitors in combination with standard-of-care drugs and investigational agents in solid tumor complex spheroid models as well as in the K-562 leukemia. Complex spheroids include a stromal component modeled by human endothelial cells (HUVEC) and fibroblasts modeled by human mesenchymal stem cells (MSCs). The concentration ranges selected for each drug and investigational agent were based upon clinically achievable concentrations if the clinical Cmax of the agent was known.
Compounds. The drugs and investigational agents used in this study are listed on Table 1. All of the agents used, including staurosporine (NSC755774) and gemcitabine (NSC613327), were obtained from the Developmental Therapeutics Program, NCI. FDA-approved anticancer drugs are available from the NCI at http://dtp.nci.nih.gov/branches/dscb/oncology_drugset_explanation.html. Drugs and investigational agents were >95% pure by proton nuclear magnetic resonance (NMR) and liquid chromatography/mass spectrometry (LC/MS). Stock solutions were prepared at 400x in DMSO, stored at -70 degrees C, and diluted in fresh medium prior to their use. The final concentration of DMSO in cell culture wells never exceeded 0.25% (v/v). The FDA-approved anticancer drug set is available from the Developmental Therapeutics Program at https://dtp.cancer.gov/organization/dscb/obtaining/available_plates.htm. All drugs and investigational agents were tested over a range starting from a high concentration at or near the clinical Cmax and decreasing in half-log increments. If the clinical Cmax for an agent had not been determined, the highest concentration tested was 10 microM.
Cell Lines. The patient-derived cancer cell (PDC) lines: 292921-168-R-J2-PDC, K24384-001-R-PDC, and 521955-158-R2-J5-PDC pancreatic carcinomas, 556581-035-R-J1 ovarian carcinoma, 324938-238-R-J1-PDC, 855422-203-R-J1-PDC and 883617-216-R-J1-PDC urothelial bladder carcinomas, 743489-274-T-PDC renal cell carcinoma, 138582-R-J1 Merkel cell tumor, K60290-347-R-J1 and K57222-313-R-J1-PDC glioblastomas, 653999-131-R-J2-PDC, LG0703-F948-PDC, and 349418-098-R-PDC non-small cell lung carcinomas, 885512-296-R-J2-PDC, 171881-019-R-J1-PDC breast carcinomas and 186277-243-T-J2-PDC and 233499-124-R-J2-PDC colon carcinomas were obtained from the NCI Patient-Derived Models Repository (PDMR, https://pdmr.cancer.gov). The established cell lines NCI/ADR-RES (RRID:CVCL_14520 and OVCAR-5 (RRID:CVCL_1628) ovarian carcinomas, 786-O (RRID:CVCL_1051) and A498 (RRID:CVCL_A498) renal cell carcinoma, NCI-H211 (ATCC, cat. CRL-5824; RRID:CVCL_1529), NCI-H196 (ATCC, cat. CRL-5823, RRID:CVCL_1509), SW 1271 (ATCC, cat. CRL-2177, RRID:CVCL_1716) and NCI-H1876 (ATCC, cat. CRL-5902, RRID:CVCL_1503) small cell lung carcinomas, MDA-MB-231 (RRID:CVCL_0062) and MDA-MB-468 (RRID:CVCL_0419)breast carcinomas (10-12). Pooled donor human umbilical vein endothelial cells (HUVEC, Lonza, cat. CC-2519) and human mesenchymal stem cells (hMSC, Lonza, cat. PT-2501) were purchased from Lonza (Walkersville, MD).
Cell Culture. All cells were maintained in an incubator at 37 degrees C and 5% CO2 with 95% humidity. The PDC lines were cultured according to standard operating procedures established by the NCI PDMR (https://pdmr.cancer.gov). Briefly all PDCs were thawed and cultured in Matrigel-coated flasks prepared with a working solution of 1X Ham's F-12 nutrient mix, without supplementation (Invitrogen, Waltham, MA, cat. 11765054), 100 U/mL penicillin-streptomycin (Invitrogen, cat. 15140122), and 2.5% Matrigel (Corning Inc., Corning, NY, cat. 354248) for the first three passages. […]
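Note: drug exposure lasted 7 days starting on day 3 after seeding.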
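Throughout, for viability, T/C: luminescence viability as percent of DMSO vehicle wells = 100%.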

Structure (SMILES): COc1ccc([C@@H](O)c2cc(-c3ncnc4cc(N5CCOCC5)ccc34)c(F)cc2Cl)nn1 + NC1CC1c1ccc(-c2cccc(O)c2)cc1
IC50 (curve of first compound, second compound 0.1 µM): 5.2 µM | IC50 (curve of first compound, second compound 0.316 µM): 4.86 µM | IC50 (curve of first compound, second compound 1 µM): 4.32 µM | IC50 (curve of first compound, second compound 3.16 µM): 3.56 µM | IC50 (curve of first compound, second compound 10 µM): 2.74 µM | viability, T/C (second compound 0.1 µM, first compound 0.0316 µM): 86.7% | viability, T/C (second compound 0.1 µM, first compound 0.1 µM): 90.9% | viability, T/C (second compound 0.1 µM, first compound 0.316 µM): 84.9% | viability, T/C (second compound 0.1 µM, first compound 1 µM): 77.7% | viability, T/C (second compound 0.1 µM, first compound 3.16 µM): 62.1% | viability, T/C (second compound 0.1 µM, first compound 10 µM): 34.4% | viability, T/C (second compound 0.316 µM, first compound 0.0316 µM): 94.5% | viability, T/C (second compound 0.316 µM, first compound 0.1 µM): 88.2% | viability, T/C (second compound 0.316 µM, first compound 0.316 µM): 90.4% | viability, T/C (second compound 0.316 µM, first compound 1 µM): 80.2% | viability, T/C (second compound 0.316 µM, first compound 3.16 µM): 57.9% | viability, T/C (second compound 0.316 µM, first compound 10 µM): 36.7% | viability, T/C (second compound 1 µM, first compound 0.0316 µM): 84.4% | viability, T/C (second compound 1 µM, first compound 0.1 µM): 88.8% | viability, T/C (second compound 1 µM, first compound 0.316 µM): 79.8% | viability, T/C (second compound 1 µM, first compound 1 µM): 75.2% | viability, T/C (second compound 1 µM, first compound 3.16 µM): 54% | viability, T/C (second compound 1 µM, first compound 10 µM): 38.2% | viability, T/C (second compound 3.16 µM, first compound 0.0316 µM): 88.6% | viability, T/C (second compound 3.16 µM, first compound 0.1 µM): 93.9% | viability, T/C (second compound 3.16 µM, first compound 0.316 µM): 77.3% | viability, T/C (second compound 3.16 µM, first compound 1 µM): 69.8% | viability, T/C (second compound 3.16 µM, first compound 3.16 µM): 51.8% | viability, T/C (second compound 3.16 µM, first compound 10 µM): 35.1% | viability, T/C (second compound 10 µM, first compound 0.0316 µM): 83.3% | viability, T/C (second compound 10 µM, first compound 0.1 µM): 77.6% | viability, T/C (second compound 10 µM, first compound 0.316 µM): 75.2% | viability, T/C (second compound 10 µM, first compound 1 µM): 71.3% | viability, T/C (second compound 10 µM, first compound 3.16 µM): 46.6% | viability, T/C (second compound 10 µM, first compound 10 µM): 29.9%

IC50 (curve of compound): > 1 µM
Structure (SMILES): Nc1ncn(C2CC(O)C(CO)O2)c(=O)n1 (configuration not stated)
viability, T/C (compound 0.00316 µM): 101% and 96.5% | viability, T/C (compound 0.01 µM): 92.3% and 88.8% | viability, T/C (compound 0.0316 µM): 81.1% and 89% | viability, T/C (compound 0.1 µM): 86.6% and 94% | viability, T/C (compound 0.316 µM): 80.8% and 94.5% | viability, T/C (compound 1 µM): 78% and 87%
